The text below walks through data of patent US20240067673A1, “MODIFIED NUCLEOSIDE OR NUCLEOTIDE” (BIG SHENZHEN, priority 2020, published 2024).

The assay deals with DNA nanospheres prepared by using E. coli sequencing library. Briefly: Evaluation of blocking effect (incorporation and cleavage efficiency) on MGISEQ2000 sequencer. Type of assay: biochemical. Particulars: for Cleavage efficiency (EC): ratio of Cleavage efficiency values for testing nucleotide and comparative nucleotide, thpp reagent, 65° C. 1 min, dTTP analogue; for Incorporation efficiency (EI): ratio of Incorporation efficiency values for testing nucleotide and comparative nucleotide (standard cold dNTP), dTTP analogue as cold dNTP. The procedure:
1. Evaluation of Blocking Effect
For each test, only one of the nucleotide analogues cold dNTP of the invention (dTTP, dATP, dCTP, and dGTP) was used. For ease of presentation, only testing results for dTTP were provided in the following table 1 for each kind of 3′-OH modification.
Sequencing was conducted according to the operation protocol of MGISEQ2000 sequencer, using the above nucleotide substrates and MGISEQ-2000RS high-throughput sequencing kit (FCL SE50).
(1) Preparing DNA nanospheres by using E. coli sequencing library;
(2) Loading DNA nanospheres onto the MGISEQ2000 sequencing chip;
(3) Amounting the loaded sequencing chip onto the MGISEQ2000 sequencer and set the sequencing process;
(4) Performing Test Round 1: incorporating standard hot dNTP, taking photos for recording signal value, and then cleaving the blocking group with thpp reagent, 65° C. 1 min.
(5) Performing Test Round 2: incorporating standard cold dNTP, then incorporating standard hot dNTP, taking photos for recording signal value, and then cleaving blocking group with thpp reagent, 65° C. 1 min.
(6) Performing Test Round 3: incorporating standard hot dNTP, taking photos for recording signal value, and then cleaving blocking group with thpp reagent, 65° C. 1 min.
(7) Performing Test Round 4: incorporating nucleotide analogues cold dNTP of the invention (only one kind of cold dNTP incorporated for each test), then incorporating standard hot dNTP, taking photos for recording signal value, and then cleaving blocking group with thpp reagent, 65° C. 1 min.
(8) Performing Test Round 5: incorporating standard hot dNTP, taking photos for recording signal value.
(9) Evaluating Incorporation efficiency and Cleavage efficiency.
Equation for Calculating Incorporation Efficiency: […]
wherein: • EI (Incorporation efficiency) is the ratio of Incorporation efficiency values for testing nucleotide and comparative nucleotide; • C1 is signal value of Test Round 1; • C2 is signal value of Test Round 2; • C3 is signal value of Test Round 3; • C4 is signal value of Test Round 4;
Equation for Calculating Cleavage Efficiency: […]
wherein: • Ec (Cleavage efficiency) is the ratio of Cleavage efficiency values for testing nucleotide and comparative nucleotide; • EI is the ratio of Incorporation efficiency values for testing nucleotide and comparative nucleotide; • C3 is signal value of Test Round 3; • C5 is signal value of Test Round 5; • CGT is the signals of base C, base G and base T in Test Round 3.

Regarding `Cc1cn([C@H]2CC(OC(=O)CCCN=[N+]=[N-])[C@@H](COP(=O)(O)OP(=O)(O)OP(=O)(O)O)O2)c(=O)[nH]c1=O` (stereo partly shown), the “Cleavage efficiency (EC)” value was 36% and the “Incorporation efficiency (EI)” value is 95%.
The corresponding values for `Cc1cn([C@H]2CC(OC(=O)c3occc3CN=[N+]=[N-])[C@@H](COP(=O)(O)OP(=O)(O)OP(=O)(O)O)O2)c(=O)[nH]c1=O` (stereo partly shown) are 5% and 101%.
Consider `Cc1cn([C@H]2CC(OC(=O)c3ccccc3C(C)N=[N+]=[N-])[C@@H](COP(=O)(O)OP(=O)(O)OP(=O)(O)O)O2)c(=O)[nH]c1=O` (stereo partly shown), for which the “Cleavage efficiency (EC)” value came out at 105% and the “Incorporation efficiency (EI)” value came out at 101%.
In the same order, the values of `CCSSC(C)c1ccccc1C(=O)OC1C[C@H](n2cc(C)c(=O)[nH]c2=O)O[C@@H]1COP(=O)(O)OP(=O)(O)OP(=O)(O)O` (stereo partly shown) are 110% and 100%.
For `Cc1cn([C@H]2CC(OC(=O)c3cccnc3C(C)N=[N+]=[N-])[C@@H](COP(=O)(O)OP(=O)(O)OP(=O)(O)O)O2)c(=O)[nH]c1=O` (stereo partly shown), the “Cleavage efficiency (EC)” value was 115% and the “Incorporation efficiency (EI)” value was 100%.
With `Cc1cn([C@H]2CC(OC(=O)c3ccc([N+](=O)[O-])cc3CN=[N+]=[N-])[C@@H](COP(=O)(O)OP(=O)(O)OP(=O)(O)O)O2)c(=O)[nH]c1=O` (stereo partly shown), the “Cleavage efficiency (EC)” value was determined as 112% and the “Incorporation efficiency (EI)” value is 101%.
For the compound `Cc1cn([C@H]2CC(OC(=O)c3ccccc3CN=[N+]=[N-])[C@@H](COP(=O)(O)OP(=O)(O)OP(=O)(O)O)O2)c(=O)[nH]c1=O` (stereo partly shown), the “Cleavage efficiency (EC)” value was 91% and the “Incorporation efficiency (EI)” value was 98%.
In the same order, the values of `COc1ccc(C(=O)OC2C[C@H](n3cc(C)c(=O)[nH]c3=O)O[C@@H]2COP(=O)(O)OP(=O)(O)OP(=O)(O)O)c(C(C)N=[N+]=[N-])c1` (stereo partly shown) are 98% and 101%.
In the same order, the values of `Cc1cn([C@H]2CC(OC(=O)c3cccnc3C(C)(C)N=[N+]=[N-])[C@@H](COP(=O)(O)OP(=O)(O)OP(=O)(O)O)O2)c(=O)[nH]c1=O` (stereo partly shown) are 110% and 95%.
In the same order, the values of `Cc1cn([C@H]2CC(OC(=O)Cc3ccccc3CN=[N+]=[N-])[C@@H](COP(=O)(O)OP(=O)(O)OP(=O)(O)O)O2)c(=O)[nH]c1=O` (stereo partly shown) are 89% and 95%.
Take `Cc1cn([C@H]2CC(OC(=O)Cc3ccccc3C(C)N=[N+]=[N-])[C@@H](COP(=O)(O)OP(=O)(O)OP(=O)(O)O)O2)c(=O)[nH]c1=O` (stereo partly shown): the “Cleavage efficiency (EC)” value is given as 91% and the “Incorporation efficiency (EI)” value is 98%.
The corresponding values for `Cc1cn([C@H]2CC(OC(=O)c3ccccc3CCN=[N+]=[N-])[C@@H](COP(=O)(O)OP(=O)(O)OP(=O)(O)O)O2)c(=O)[nH]c1=O` (stereo partly shown) are “Incorporation efficiency (EI) 100% Cleavage efficiency (EC) 100%” and “Incorporation efficiency (EI) 100% Cleavage efficiency (EC) 100%”.
As for `CSSC(C)c1ccccc1C(=O)OC1C[C@H](n2cc(C)c(=O)[nH]c2=O)O[C@@H]1COP(=O)(O)OP(=O)(O)OP(=O)(O)O` (stereo partly shown), the “Cleavage efficiency (EC)” value worked out at 111% and the “Incorporation efficiency (EI)” value is 100%.
For `Cc1cn([C@H]2CC(OC(=O)c3ccccc3C(C)SSCC(C)C)[C@@H](COP(=O)(O)OP(=O)(O)OP(=O)(O)O)O2)c(=O)[nH]c1=O` (stereo partly shown), the “Cleavage efficiency (EC)” value turned out to be 98% and the “Incorporation efficiency (EI)” value is recorded as 90%.
`Cc1cn([C@H]2CC(OC(=O)c3ccccc3C(C)SSC(C)C)[C@@H](COP(=O)(O)OP(=O)(O)OP(=O)(O)O)O2)c(=O)[nH]c1=O` (stereo partly shown): the “Cleavage efficiency (EC)” value turned out to be 103% and the “Incorporation efficiency (EI)” value is listed as 95%.
The corresponding values for `CSSC(C)c1cc(NC(C)=O)ccc1C(=O)OC1C[C@H](n2cc(C)c(=O)[nH]c2=O)O[C@@H]1COP(=O)(O)OP(=O)(O)OP(=O)(O)O` (stereo partly shown) are 98% and 100%.
The corresponding values for `COc1ccc(C(=O)OC2C[C@H](n3ccc(N)nc3=O)O[C@@H]2COP(=O)(O)OP(=O)(O)OP(=O)(O)O)c(C(C)SSC)c1` (stereo partly shown) are 101% and 104%.
